The source of these data is ChEMBL document CHEMBL1201862, “PubChem BioAssay data set” (2004).

Among the test systems are A498; A549; BT-549; EKVX; HOP-92; HT-29; Hs-578T; M14; MCF7; MDA-N; NCI-H226; NCI-H522; OVCAR-5; SK-MEL-5; SN12C; SR; SW-620; T47D; U-251; K562.
What all share (assay): NCI-60 cell line screen, 48 h

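Test compounds were applied to cells in 96-well plates for 48 hours at 5 doses. Here, GI50 denotes the concentration required for 50% inhibition of growth.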 Activity calls are given as the source filed them. Cut-off read from the data, not from the text of the source: active = GI50 up to about 1.1 µM and inactive = higher.

Turning to `CSc1nc(Br)nc2ncn(C3CC(Oc4ccc(C)cc4)C(COc4ccc(C)cc4)O3)c12` (centres undefined), the GI50 is > 100 µM (inactive) in the experiment with A498; > 100 µM (inactive) in the experiment on A549; > 100 µM (inactive) with BT-549; > 100 µM (inactive) with EKVX; 34 µM (inactive) in the experiment with HOP-92; > 100 µM (inactive) in the experiment on HT-29. In addition, the GI50 in the experiment on Hs-578T is 25.1 µM (inactive); with M14, > 100 µM (inactive); with MCF7, > 100 µM (inactive); with MDA-N, > 100 µM (inactive); with NCI-H226, > 100 µM (inactive); in the experiment on NCI-H522, > 100 µM (inactive). Moreover, the GI50 with OVCAR-5 was > 100 µM (inactive); in the experiment on SK-MEL-5 it was > 100 µM (inactive); with SN12C it was > 100 µM (inactive); in the experiment with SR, 3.72 µM (inactive); in the experiment on SW-620 it was > 100 µM (inactive); in the experiment with T47D, > 100 µM (inactive). Also, the GI50 with U-251 was > 100 µM (inactive).
On to `Cc1cc(S(=O)(=O)/N=C(\NN)NCC(=O)NN)c(S)cc1Cl`, for which the GI50 in the experiment on A498, in the experiment with A549, with BT-549, in the experiment with EKVX, in the experiment on HOP-92 and in the experiment with HT-29 was > 10 µM (inactive) in each case. In addition, the GI50 in the experiment on Hs-578T, in the experiment on K562, with M14, in the experiment with MCF7, in the experiment on MDA-N and with NCI-H226 was > 10 µM (inactive) each time. For the same compound, the GI50 in the experiment with NCI-H522 is > 10 µM (inactive); in the experiment on OVCAR-5, > 10 µM (inactive); in the experiment on SK-MEL-5 it was 8.85 µM (inactive); with SN12C, > 10 µM (inactive); with SR it was > 10 µM (inactive); in the experiment on SW-620 it was > 10 µM (inactive). The GI50 with T47D and with U-251 was > 10 µM (inactive) in each case.
As to `Cc1cnoc1/N=C1\C=C(O)C(=O)c2ccccc21`, the GI50 in the experiment on A498 is 29 µM (inactive); with A549, 6.7 µM (inactive); in the experiment on BT-549, 4.9 µM (inactive); with EKVX, 29.5 µM (inactive); with HOP-92, 29.4 µM (inactive); in the experiment on HT-29, 29 µM (inactive). Also, the GI50 in the experiment on Hs-578T was 7.6 µM (inactive); in the experiment with K562 it was 1.73 µM (inactive); in the experiment on M14, 12.5 µM (inactive); in the experiment with MCF7 it was 4.26 µM (inactive); in the experiment with MDA-N, 1.26 µM (inactive); in the experiment on NCI-H226 it was 35.3 µM (inactive). For the same compound, the GI50 in the experiment with NCI-H522 is 34.5 µM (inactive); with OVCAR-5 it was 10.9 µM (inactive); with SK-MEL-5, 3.46 µM (inactive); with SN12C it was 1.77 µM (inactive); in the experiment on SR, 33.6 µM (inactive); in the experiment with SW-620, 25.8 µM (inactive). The GI50 in the experiment on T47D was 27.9 µM (inactive); in the experiment with U-251, 1.79 µM (inactive).
`COC(=O)[C@]12CC[C@H]3CN(S(=O)(=O)c4ccc(C)cc4)[C@H]([C@H]31)[C@H](c1ccco1)N2S(=O)(=O)c1ccc(C)cc1`: the GI50 in the experiment on A498 is 53.2 µM (inactive); in the experiment with A549, 31.2 µM (inactive); with BT-549 it was 30.1 µM (inactive); with EKVX, 51.1 µM (inactive); in the experiment with HOP-92, 10.1 µM (inactive); with HT-29, 38.8 µM (inactive). The GI50 in the experiment on Hs-578T was > 100 µM (inactive); in the experiment with K562 it was 30.2 µM (inactive); with M14, 26.8 µM (inactive); in the experiment with MCF7 it was 32.2 µM (inactive); in the experiment on MDA-N, 24.7 µM (inactive); in the experiment with NCI-H226 it was 42.5 µM (inactive). For the same compound, the GI50 is 29.9 µM (inactive) in the experiment on NCI-H522; > 100 µM (inactive) in the experiment with OVCAR-5; 37.2 µM (inactive) with SK-MEL-5; 37.6 µM (inactive) in the experiment on SN12C; 38.7 µM (inactive) in the experiment on SR; 70.1 µM (inactive) in the experiment on SW-620. For the same compound, the values for the GI50 with T47D and in the experiment on U-251 were 14.1 µM (inactive) and 64.3 µM (inactive), respectively.
Turning to `O=C[C@@H](CO)O[C@H](C=O)n1cnc2c(=O)nc[nH]c21`, the GI50 with A498 is 673 µM (inactive); in the experiment with A549 it was 849 µM (inactive); in the experiment on BT-549 it was 282 µM (inactive); with EKVX it was 357 µM (inactive); in the experiment on HOP-92, 153 µM (inactive); with HT-29, 486 µM (inactive). For the same compound, the GI50 with Hs-578T is 664 µM (inactive); in the experiment with K562, 83.9 µM (inactive); in the experiment with M14, 505 µM (inactive); with MCF7, 91.2 µM (inactive); with MDA-N, 108 µM (inactive); in the experiment with NCI-H226, 583 µM (inactive). For the same compound, the GI50 is 146 µM (inactive) with NCI-H522; 634 µM (inactive) in the experiment with OVCAR-5; 378 µM (inactive) in the experiment on SK-MEL-5; 266 µM (inactive) in the experiment with SN12C; 181 µM (inactive) with SR; 126 µM (inactive) in the experiment with SW-620. Also, the GI50 in the experiment on T47D is 60.5 µM (inactive); in the experiment on U-251, 748 µM (inactive).
For `CCOc1ccc(NC(=O)/C(=N\NC(C)(C)C)C2C(=O)Nc3ccccc3[S+]2[O-])cc1` (centres undefined), the GI50 in the experiment with A498, in the experiment on A549, with BT-549, with EKVX, with HOP-92 and in the experiment with HT-29 was > 100 µM (inactive) in each case. The GI50 in the experiment with Hs-578T, in the experiment with K562, with M14, with MCF7, in the experiment on MDA-N and in the experiment on NCI-H226 was > 100 µM (inactive) throughout. In addition, the GI50 is > 100 µM (inactive) in the experiment on NCI-H522; > 100 µM (inactive) in the experiment with OVCAR-5; > 100 µM (inactive) in the experiment with SK-MEL-5; > 100 µM (inactive) in the experiment with SN12C; 45.1 µM (inactive) with SR; > 100 µM (inactive) in the experiment with SW-620. Moreover, the GI50 with T47D and in the experiment with U-251 was > 100 µM (inactive) each time.
Regarding `COc1cc(OC)c2c(c1)OC(c1cccnc1)C(c1ccccc1)C2=O` (centres undefined), the GI50 in the experiment with A498, in the experiment on A549, with BT-549, in the experiment on EKVX, in the experiment with HOP-92 and in the experiment on HT-29 was > 100 µM (inactive) each time. Also, the GI50 in the experiment with Hs-578T was 49.5 µM (inactive); with K562, > 100 µM (inactive); in the experiment with M14 it was > 100 µM (inactive); in the experiment with MCF7, > 100 µM (inactive); with MDA-N, 42.7 µM (inactive); with NCI-H226 it was > 100 µM (inactive). Also, the GI50 in the experiment with NCI-H522 is 72.1 µM (inactive); with OVCAR-5, > 100 µM (inactive); in the experiment on SK-MEL-5, > 100 µM (inactive); in the experiment with SN12C, > 100 µM (inactive); in the experiment on SR it was > 100 µM (inactive); in the experiment on SW-620, > 100 µM (inactive). For the same compound, the GI50 with T47D is 52 µM (inactive); in the experiment with U-251 it was > 100 µM (inactive).
In the case of `O=c1oc2cc(O)ccc2cc1-c1nc2ccccc2o1`, the GI50 in the experiment on A498 was 29.2 µM (inactive); in the experiment on A549, 29.5 µM (inactive); with BT-549 it was 15.5 µM (inactive); in the experiment on EKVX it was 28.5 µM (inactive); with HOP-92, 26.7 µM (inactive); in the experiment on HT-29, 33.7 µM (inactive). Moreover, the GI50 was 33.4 µM (inactive) in the experiment with Hs-578T; 30.4 µM (inactive) in the experiment with K562; 36.3 µM (inactive) in the experiment on M14; 32.8 µM (inactive) with MCF7; 40.8 µM (inactive) with MDA-N; 61.5 µM (inactive) with NCI-H226. Besides, the GI50 in the experiment with NCI-H522 was 17.1 µM (inactive); in the experiment with OVCAR-5 it was > 100 µM (inactive); in the experiment on SK-MEL-5, 19.5 µM (inactive); in the experiment with SN12C it was 49.7 µM (inactive); with SR, 30.9 µM (inactive); in the experiment on SW-620, 40.3 µM (inactive). Further, the GI50 in the experiment with T47D is 1.07 µM (active); in the experiment on U-251, 28.7 µM (inactive).
With `CCc1c(Cc2cc(C)cc(C)c2)n2c(nc1=O)SCC2CBr` (centres undefined), the GI50 in the experiment on A498 is 28.7 µM (inactive); in the experiment with A549, > 50 µM (inactive); with BT-549, > 50 µM (inactive); in the experiment on EKVX, 27 µM (inactive); in the experiment with HOP-92 it was 9.93 µM (inactive); in the experiment on HT-29, > 50 µM (inactive). Moreover, the GI50 in the experiment on Hs-578T was > 50 µM (inactive); with K562, > 50 µM (inactive); in the experiment on M14, > 50 µM (inactive); in the experiment with MCF7, 29.4 µM (inactive); in the experiment on MDA-N, > 50 µM (inactive); in the experiment on NCI-H226, > 50 µM (inactive). For the same compound, the GI50 with NCI-H522 was 27.4 µM (inactive); in the experiment on OVCAR-5, > 50 µM (inactive); with SK-MEL-5 it was > 50 µM (inactive); in the experiment with SN12C it was > 50 µM (inactive); in the experiment with SR, > 50 µM (inactive); in the experiment with SW-620, > 50 µM (inactive). The GI50 in the experiment on T47D was 22.6 µM (inactive); in the experiment with U-251 it was 24.8 µM (inactive).
For `O=c1c(C(c2cccc(C(c3c(O)oc4ccccc4c3=O)c3c(O)oc4ccccc4c3=O)c2)c2c(O)oc3ccccc3c2=O)c(O)oc2ccccc12`, the GI50 in the experiment on A498 is > 100 µM (inactive); in the experiment with A549, 60.3 µM (inactive); with BT-549 it was 27.9 µM (inactive); in the experiment on EKVX it was 67.3 µM (inactive); in the experiment with HOP-92, 27.7 µM (inactive); in the experiment on HT-29, 36.9 µM (inactive). Further, the GI50 with Hs-578T is 25.5 µM (inactive); with K562 it was 27.9 µM (inactive); in the experiment with M14, > 100 µM (inactive); in the experiment on MCF7, 13.6 µM (inactive); in the experiment with MDA-N it was 66.4 µM (inactive); with NCI-H226, 44.7 µM (inactive). In addition, the GI50 in the experiment with NCI-H522 is 14.5 µM (inactive); with OVCAR-5, > 100 µM (inactive); in the experiment on SK-MEL-5, 13.2 µM (inactive); with SN12C it was 22.1 µM (inactive); in the experiment with SR, 28.4 µM (inactive); in the experiment with SW-620 it was > 100 µM (inactive). For the same compound, the GI50 is 24.3 µM (inactive) in the experiment with T47D and 26.3 µM (inactive) in the experiment on U-251.
